# Biological target: T1, human GOAT (Homo sapiens, UniProt Q96T53)
# T1 construct: made in house; host or cells: Sf9 insect cells (BacToBac baculovirus, pFastBac1 vector); microsome fraction
# T1 sequence (Q96T53 1-435): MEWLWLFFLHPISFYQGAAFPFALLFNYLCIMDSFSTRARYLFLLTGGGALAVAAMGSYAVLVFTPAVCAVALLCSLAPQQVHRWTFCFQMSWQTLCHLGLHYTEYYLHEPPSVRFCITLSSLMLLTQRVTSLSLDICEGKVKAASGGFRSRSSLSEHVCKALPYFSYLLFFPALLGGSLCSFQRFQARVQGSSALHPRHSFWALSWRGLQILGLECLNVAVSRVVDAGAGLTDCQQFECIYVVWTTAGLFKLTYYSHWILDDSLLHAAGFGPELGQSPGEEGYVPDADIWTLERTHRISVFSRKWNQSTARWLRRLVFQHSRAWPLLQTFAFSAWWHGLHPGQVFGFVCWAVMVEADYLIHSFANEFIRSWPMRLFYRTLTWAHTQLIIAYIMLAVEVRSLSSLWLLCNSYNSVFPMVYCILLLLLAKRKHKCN
# Experiment: GOAT enzyme activity measurement by HTRF method (human GOAT-expressing microsome fraction)
# Format: biochemical
# Conditions: 10 μM compound; human GOAT-expressing Sf9 microsome fraction; octanoyl-CoA and Ghrelin-biotin substrates; 0% control without compound, 100% control without enzyme
# Description: Human GOAT (Accession NO: EU518495) cDNA was amplified by PCR including reaction of (1) 98° C., 1 min, (2) 35 repeats of 98° C., 10 sec·65° C., 15 sec·72° C., 80 sec, and (3) 72° C., 5 min, using human stomach cDNA library (Takara Bio) as a template and Pyrobest DNA Polymerase (Takara Bio). The amplified fragment was treated with restriction enzymes, inserted into Stu I/Not I sites of pFastBacl (Invitrogen) by using Ligation High (TOYOBO), and transfected into ECOS JM109 (Nippon Gene) to construct pFB/hGOAT.
# Production of Baculovirus and Preparation of Insect Cell Microsome Fraction
# For preparation of baculovirus from pFB/hGOAT, BacToBac baculovirus expression system (Invitrogen) was used. The virus titer was measured by Real-Time PCR using SYBR Green (Takara Bio). Sf9 cells were infected with the obtained baculovirus at Multiplicity of Infection (MOI)=0.2, and cultured for 70 hr. The Sf9 cells were recovered, suspended in a suspension buffer (TBS (0.3 M NaCl), 1 mM DTT, 1 mM EDTA, Complete (Roche) (1 tablet/50 mL)), and the cells were disrupted twice on ice at 20000 rpm, 30 sec using a polytron homogenizer. The cell disruption solution was centrifuged at 1000 rpm for 10 min at 4° C., the supernatant was further ultracentrifuged at 40000 rpm for 30 min at 4° C. and the precipitate was recovered. The obtained precipitate was suspended in the suspension buffer used above to give a human GOAT-expressing microsome fraction. The protein level was measured using BCA Protein assay Reagent (PIERCE).
# Enzyme Activity Measurement by HTRF Method
# A compound solution (2 μL) diluted with an assay buffer containing 50 mM Tris-HCl (pH 7.5), 0.5% TWEEN20, and Complete to 15% DMSO and 90 μg/mL human GOAT-expressing microsome fraction (2 μL) were incubated at room temperature for 20 min, after which a substrate mixed solution (2 μL) containing 30 μM octanoyl-CoA (CHEM-IMPLEX) and 3 μM Ghrelin-biotin ([…]epsilon aminocaproic acid-biotin (Greiner Coutom synthesis)) was added to 384 white small volume plate (Greiner). After reaction for 20 min, 2 μL of citrate buffer (pH3) (mixed solution of 0.1 M citric acid (39.8 mL) and 0.2 M Na2HPO4 (10.2 mL)), 2 μL of 25 nM anti-active ghrelin antibody (produced in mouse), 5 μL of Eu(K)-Anti Mouse IgG Pab (Cis Bio) 100-fold diluted with HTRF detection buffer (Cis Bio) and 5 μL of streptavidin-Xlent (Cis Bio) 66.6-fold diluted with HTRF detection buffer (Cis Bio) were added. After incubation at room temperature for 1 hr or longer, the fluorescence values at 620 nm and 665 nm were measured by Envision (PerkinElmer). The data was calculated [(665 nm signal/620 nm signal)×10^4], and the inhibitory activity against human GOAT was shown by the data where 0% control was without compound, and 100% control was without enzyme.
row,Structure (SMILES),inhibition at 10 µM [%]
1,"Cn1nc(C(F)(F)F)cc1COc1ccc2c(CC(=O)O)csc2c1 [Example 18, (6-((1-Methyl-3-(trifluoromethyl)-1H-pyrazol-5-yl)methoxy)-1-benzothiophen-3-yl)acetic acid]",98.2
2,"Cc1ccc(COc2cc(Cl)c3c(CC(=O)O)csc3c2)c(C)n1 [Example 14, (4-Chloro-6-((2,6-dimethylpyridin-3-yl)methoxy)-1-benzothiophen-3-yl)acetic acid]",107
3,"COC(=O)Cc1csc2c(F)c(OCc3ccc(C(F)(F)F)nc3C)cc(C)c12 [Example 35, Methyl(7-fluoro-4-methyl-6-((2-methyl-6-(trifluoromethyl)pyridin-3-yl)methoxy)-1-benzothiophen-3-yl)acetate]",94
4,"O=C(O)CNC(=O)Cc1csc2cc(OCc3ccc(Cl)cc3Cl)ccc12 [Example 55, N-((6-((2,4-Dichlorobenzyl)oxy)-1-benzothiophen-3-yl)acetyl)glycine]",95
5,"COC(=O)Cc1csc2c(F)c(OCc3cc(C(F)(F)F)nn3C)cc(C)c12 [Example 33, Methyl(7-fluoro-4-methyl-6-((1-methyl-3-(trifluoromethyl)-1H-pyrazol-5-yl)methoxy)-1-benzothiophen-3-yl)acetate]",96.1
6,"Cc1cc(OCc2cc(C(F)(F)F)nn2C)cc2scc(CC(=O)O)c12 [Example 12, (4-Methyl-6-((1-methyl-3-(trifluoromethyl)-1H-pyrazol-5-yl)methoxy)-1-benzothiophen-3-yl)acetic acid]",104
7,"O=C(O)CC1CSc2cc(OCc3ccc(Cl)cc3Cl)ccc21 (stereo not drawn) [Example 50, (6-((2,4-Dichlorobenzyl)oxy)-2,3-dihydro-1-benzothiophen-3-yl)acetic acid]",99
8,"Cc1nc(C(F)(F)F)ccc1COc1cc(C)c2c(CC(=O)O)csc2c1 [Example 10, (4-Methyl-6-((2-methyl-6-(trifluoromethyl)pyridin-3-yl)methoxy)-1-benzothiophen-3-yl)acetic acid]",99.2
9,"COC(=O)Cc1csc2c(C)c(OCc3ccc(C(F)(F)F)nc3C)cc(C)c12 [Example 23, Methyl(4,7-dimethyl-6-((2-methyl-6-(trifluoromethyl)pyridin-3-yl)methoxy)-1-benzothiophen-3-yl)acetate]",62.8
10,"CCOC(=O)Cc1csc2cc(OCc3ccc(Cl)cc3Cl)ccc12 [Example 1, Ethyl(6-((2,4-dichlorobenzyl)oxy)-1-benzothiophen-3-yl)acetate]",69
11,"COC(=O)Cc1csc2c(F)c(OCc3cc(C(F)(F)F)nn3C)cc(Cl)c12 [Example 37, Methyl(4-chloro-7-fluoro-6-((1-methyl-3-(trifluoromethyl)-1H-pyrazol-5-yl)methoxy)-1-benzothiophen-3-yl)acetate]",98.9

# Next, values leading:
row,inhibition at 10 µM [%],Structure (SMILES)
1,93,"O=C(O)C[C@@H]1COc2cc(OCc3ccc(Cl)cc3Cl)ccc21 [Example 262, ((3S)-6-((2,4-Dichlorobenzyl)oxy)-2,3-dihydro-1-benzofuran-3-yl)acetic acid]"
2,97,"O=C(Cc1csc2cc(OCc3ccc(Cl)cc3Cl)ccc12)N[C@@H](CO)C(=O)O [Example 56, N-((6-((2,4-Dichlorobenzyl)oxy)-1-benzothiophen-3-yl)acetyl)serine]"
3,83.1,"Cc1ccc(/C=C/c2ccc3c(CC(=O)O)csc3c2)c(C)n1 [Example 183, (6-((E)-2-(2,6-dimethylpyridin-3-yl)vinyl)-1-benzothiophen-3-yl)acetic acid]"
4,59,"CCC(=O)NCC[C@@H]1COc2cc(OCc3ccc(Cl)cc3Cl)ccc21 [Example 198, N-(2-((3S)-6-((2,4-Dichlorobenzyl)oxy)-2,3-dihydro-1-benzofuran-3-yl)ethyl)propanamide]"
5,97.3,"Cc1ccc(CCc2ccc3c(CC(=O)O)csc3c2)c(C)n1 [Example 182, (6-(2-(2,6-Dimethylpyridin-3-yl)ethyl)-1-benzothiophen-3-yl)acetic acid]"
6,102,"Cc1nc(C(F)(F)F)ccc1COc1cc(F)c2c(CC(=O)O)csc2c1 [Example 305, (4-Fluoro-6-((2-methyl-6-(trifluoromethyl)pyridin-3-yl)methoxy)-1-benzothiophen-3-yl)acetic acid]"
7,83.2,"CCS(=O)(=O)NC(=O)Cc1csc2cc(OCc3ccc(Cl)cc3Cl)ccc12 [Example 138, 2-(6-((2,4-Dichlorobenzyl)oxy)-1-benzothiophen-3-yl)-N-(ethylsulfonyl)acetamide]"
